Test results: patent US8716292B2, “Riminophenazines with 2-(heteroaryl)amino substituents and their anti-microbial activity” (priority 2010, dated 2014)
Values after ≈ are worked out from the molar mass of the structure shown.

Each molecule was assayed on Mycobacterium tuberculosis H37Rv strains (assay: In vitro assay for antimicrobial susceptibility (microplate Alamar blue MIC)). Conditions: Mycobacterium tuberculosis, H37RV, in vitro, Mycobacterium tuberculosis H37Rv strains; read-out: MIC (μg/mL) against H37Rv.
Format: cell-based

Point of comparison: `CC(=O)Nc1ccc(Nc2cc3nc4ccccc4n(-c4ccc(C(F)(F)F)cc4)c-3c/c2=N\C2CCC(O)CC2)cn1` (centres unmarked) [TBI-714, 5-(4-Trifluoromethylphenyl)-3-(4-hydroxycyclohexyl)imino-2-(6-acetamino-3-pyridyl)amino-3,5-dihydrophenazine], MIC 0.686 µg/mL (≈ 1.17 µM). Against it:
- FC(F)(F)c1ccc(-n2c3c/c(=N\C4CCN(C5CCCC5)CC4)c(Nc4cccnc4)cc-3nc3ccccc32)cc1 [TBI-691, 5-(4-Trifluoromethylphenyl)-3-(N-cyclopentyl-4-piperidyl)imino-2-(3-pyridyl)amino-3,5-dihydrophenazine] — 11-fold lower, 0.06 µg/mL (≈ 0.103 µM)
- Cc1ccc(Nc2cc3nc4ccccc4n(-c4ccc(F)cc4)c-3c/c2=N\C(C)C)cn1 [TBI-692, 5-(4-Fluorophenyl)-3-(1-methylethyl)imino-2-(6-methyl-3-pyridyl)amino-3,5-dihydrophenazine] — 11-fold lower, 0.06 µg/mL (≈ 0.137 µM)
- Cc1ncccc1Nc1cc2nc3ccccc3n(-c3ccc(F)cc3)c-2c/c1=N\C(C)C [TBI-693, 5-(4-Fluorophenyl)-3-(1-methylethyl)imino-2-(2-methyl-3-pyridyl)amino-3,5-dihydrophenazine] — 23-fold lower, 0.03 µg/mL (≈ 0.0686 µM)
- COC1CCC(/N=c2\cc3n(-c4ccc(C(F)(F)F)cc4)c4ccccc4nc-3cc2Nc2ccc(C)nc2)CC1 (centres unmarked) [TBI-695, 5-(4-Trifluoromethylphenyl)-3-(4-methoxycyclohexyl)imino-2-(6-methyl-3-pyridyl)amino-3,5-dihydrophenazine] — 43-fold lower, 0.016 µg/mL (≈ 0.0287 µM)
- Cc1ccc(Nc2cc3nc4ccccc4n(-c4ccc(C(F)(F)F)cc4)c-3c/c2=N\C2CCOCC2)cn1 [TBI-696, 5-(4-Trifluoromethylphenyl)-3-(4-tetrahydropyranyl)imino-2-(6-methyl-3-pyridyl)amino-3,5-dihydrophenazine] — 21-fold lower, 0.032 µg/mL (≈ 0.0604 µM)
- Cc1ccc(Nc2cc3nc4ccccc4n(-c4ccc(C(F)(F)F)cc4)c-3c/c2=N\C2CCN(C)CC2)cn1 [TBI-697, 5-(4-Trifluoromethylphenyl)-3-(N-methyl-4-piperidyl)imino-2-(6-methyl-3-pyridyl)amino-3,5-dihydrophenazine] — 13-fold lower, 0.053 µg/mL (≈ 0.0977 µM)
- Cc1ccc(Nc2cc3nc4ccccc4n(-c4ccc(C(F)(F)F)cc4)c-3c/c2=N\CCN2CCOCC2)cn1 [TBI-698, 5-(4-Trifluoromethylphenyl)-3-(2-morpholinoethyl)imino-2-(6-meth-3-pyridyl)amino-3,5-dihydrophenazine] — 6.4-fold lower, 0.108 µg/mL (≈ 0.193 µM)
- COc1ncccc1Nc1cc2nc3ccccc3n(-c3ccc(C(F)(F)F)cc3)c-2c/c1=N\C(C)C [TBI-699, 5-(4-Trifluoromethylphenyl)-3-(1-methylethyl)imino-2-(2-methoxy-3-pyridyl)amino-3,5-dihydrophenazine] — 24-fold lower, 0.029 µg/mL (≈ 0.0576 µM)
- COc1ncccc1Nc1cc2nc3ccccc3n(-c3ccc(C(F)(F)F)cc3)c-2c/c1=N\C1CCC(OC)CC1 (centres unmarked) [TBI-700, 5-(4-Trifluoromethylphenyl)-3-(4-methoxycyclohexyl)imino-2-(2-methoxy-3-pyridyl)amino-3,5-dihydrophenazine] — 43-fold lower, 0.016 µg/mL (≈ 0.0279 µM)
- COc1ncccc1Nc1cc2nc3ccccc3n(-c3ccc(C(F)(F)F)cc3)c-2c/c1=N\C1CCOCC1 [TBI-701, 5-(4-Trifluoromethylphenyl)-3-(4-tetrahydropyranyl)imino-2-(2-methoxy-3-pyridyl)amino-3,5-dihydrophenazine] — 43-fold lower, 0.016 µg/mL (≈ 0.0293 µM)
- COc1ncccc1Nc1cc2nc3ccccc3n(-c3ccc(C(F)(F)F)cc3)c-2c/c1=N\C1CCN(CC(C)C)CC1 [TBI-702] — 43-fold lower, 0.016 µg/mL (≈ 0.0266 µM)
- COc1ncccc1Nc1cc2nc3ccccc3n(-c3ccc(C(F)(F)F)cc3)c-2c/c1=N\C1CCN(C)CC1 [TBI-703, 5-(4-Trifluoromethylphenyl)-3-(N-methyl-4-piperidyl)imino-2-(2-methoxy-3-pyridyl)amino-3,5-dihydrophenazine] — 34-fold lower, 0.02 µg/mL (≈ 0.0358 µM)
- COc1ncccc1Nc1cc2nc3ccccc3n(-c3ccc(C(F)(F)F)cc3)c-2c/c1=N\CCN1CCOCC1 [TBI-704, 5-(4-Trifluoromethylphenyl)-3-(2-morpholinoethyl)imino-2-(2-methoxy-3-pyridyl)amino-3,5-dihydrophenazine] — 11-fold lower, 0.061 µg/mL (≈ 0.106 µM)
- Cc1ncccc1Nc1cc2nc3ccccc3n(-c3ccc(C(F)(F)F)cc3)c-2c/c1=N\C(C)C [TBI-705, 5-(4-Trifluoromethylphenyl)-3-(1-methylethyl)imino-2-(2-methyl-3-pyridyl)amino-3,5-dihydrophenazine] — 49-fold lower, 0.014 µg/mL (≈ 0.0287 µM)
- COC1CCC(N=c2cc3n(-c4ccc(C(F)(F)F)cc4)c4ccccc4nc-3cc2Nc2cccnc2C)CC1 (centres unmarked) [TBI-706, 5-(4-Trifluoromethylphenyl)-3-(4-methoxycyclohexyl)imino-2-(2-methyl-3-pyridyl)amino-3,5-dihydrophenazine] — 62-fold lower, 0.011 µg/mL (≈ 0.0197 µM)
- Cc1ncccc1Nc1cc2nc3ccccc3n(-c3ccc(C(F)(F)F)cc3)c-2c/c1=N\C1CCOCC1 [TBI-707, 5-(4-Trifluoromethylphenyl)-3-(4-tetrahydropyranyl)imino-2-(2-methyl-3-pyridyl)amino-3,5-dihydrophenazine] — 62-fold lower, 0.011 µg/mL (≈ 0.0208 µM)
- Cc1ncccc1Nc1cc2nc3ccccc3n(-c3ccc(C(F)(F)F)cc3)c-2c/c1=N\C1CCCCC1 [TBI-708, 5-(4-Trifluoromethylphenyl)-3-cyclohexylimino-2-(2-methyl-3-pyridyl)amino-3,5-dihydrophenazine] — 24-fold lower, 0.028 µg/mL (≈ 0.0531 µM)
- Cc1ncccc1Nc1cc2nc3ccccc3n(-c3ccc(C(F)(F)F)cc3)c-2c/c1=N\C1CCC(O)CC1 (centres unmarked) [TBI-709, 5-(4-Trifluoromethylphenyl)-3-(4-hydroxycyclohexyl)imino-2-(2-methyl-3-pyridyl)amino-3,5-dihydrophenazine] — 6.4-fold lower, 0.108 µg/mL (≈ 0.199 µM)
- COc1ncccc1Nc1cc2nc3ccccc3n(-c3ccc(C(F)(F)F)cc3)c-2c/c1=N\C1CCCCC1 [TBI-710, 5-(4-Trifluoromethylphenyl)-3-cyclohexylimino-2-(2-methoxy-3-pyridyl)amino-3,5-dihydrophenazine] — 23-fold lower, 0.03 µg/mL (≈ 0.0552 µM)
- CC(=O)Nc1ccc(Nc2cc3nc4ccccc4n(-c4ccc(C(F)(F)F)cc4)c-3c/c2=N\C(C)C)cn1 [TBI-711, 5-(4-Trifluoromethylphenyl)-3-(1-methylethyl)imino-2-(6-acetamino-3-pyridyl)amino-3,5-dihydrophenazine] — 6.2-fold lower, 0.11 µg/mL (≈ 0.207 µM)
- CC(=O)Nc1ccc(Nc2cc3nc4ccccc4n(-c4ccc(C(F)(F)F)cc4)c-3c/c2=N\C2CCOCC2)cn1 [TBI-712, 5-(4-Trifluoromethylphenyl)-3-(4-tetrahydropyranyl)imino-2-(6-acetamino-3-pyridyl)amino-3,5-dihydrophenazine] — 4.3-fold lower, 0.158 µg/mL (≈ 0.276 µM)
- CC(=O)Nc1ccc(Nc2cc3nc4ccccc4n(-c4ccc(C(F)(F)F)cc4)c-3c/c2=N\C2CCCCC2)cn1 [TBI-713, 5-(4-Trifluoromethylphenyl)-3-cyclohexylimino-2-(6-acetamino-3-pyridyl)amino-3,5-dihydrophenazine] — 31-fold lower, 0.022 µg/mL (≈ 0.0386 µM)
- COC1CCC(/N=c2\cc3n(-c4ccc(C(F)(F)F)cc4)c4ccccc4nc-3cc2Nc2ccc(NC(C)=O)nc2)CC1 (centres unmarked) [TBI-715, 5-(4-Trifluoromethylphenyl)-3-(4-methoxycyclohexyl)imino-2-(6-acetamino-3-pyridyl)amino-3,5-dihydrophenazine] — 11-fold lower, 0.06 µg/mL (≈ 0.0999 µM)
- Cc1ccc(Nc2cc3nc4ccccc4n(-c4ccc(C(F)(F)F)cc4)c-3c/c2=N\C2CC2)cn1 [TBI-716, 5-(4-Trifluoromethylphenyl)-3-cyclopropylimino-2-(6-methyl-3-pyridyl)amino-3,5-dihydrophenazine] — 17-fold lower, 0.041 µg/mL (≈ 0.0844 µM)
- Cc1ccc(Nc2cc3nc4ccccc4n(-c4ccc(C(F)(F)F)cc4)c-3c/c2=N\C2CCCCC2)cn1 [TBI-717, 5-(4-Trifluoromethylphenyl)-3-cyclohexylimino-2-(6-methyl-3-pyridyl)amino-3,5-dihydrophenazine] — 46-fold lower, 0.015 µg/mL (≈ 0.0284 µM)
- COc1ncccc1Nc1cc2nc3ccccc3n(-c3ccc(C(F)(F)F)cc3)c-2c/c1=N\C1CC1 [TBI-718, 5-(4-Trifluoromethylphenyl)-3-cyclopropylimino-2-(2-methoxy-3-pyridyl)amino-3,5-dihydrophenazine] — 46-fold lower, 0.015 µg/mL (≈ 0.0299 µM)
- COc1ncccc1Nc1cc2nc3ccccc3n(-c3ccc(C(F)(F)F)cc3)c-2c/c1=N\C1CCC(O)CC1 (centres unmarked) [TBI-719, 5-(4-Trifluoromethylphenyl)-3-(4-hydroxycyclohexyl)imino-2-(2-methoxy-3-pyridyl)amino-3,5-dihydrophenazine] — 3.4-fold lower, 0.204 µg/mL (≈ 0.365 µM)
- CC(C)/N=c1\cc2n(-c3ccccc3C(F)(F)F)c3ccccc3nc-2cc1Nc1cccnc1 [TBI-720, 5-(2-Trifluoromethylphenyl)-3-(1-methylethyl)imino-2-(3-pyridyl)amino-3,5-dihydrophenazine] — 3.2-fold lower, 0.214 µg/mL (≈ 0.452 µM)
- Cc1cncc(Nc2cc3nc4ccccc4n(-c4ccc(C(F)(F)F)cc4)c-3c/c2=N\C(C)C)c1 [TBI-721, 5-(4-Trifluoromethylphenyl)-3-(1-methylethyl)imino-2-(5-methyl-3-pyridyl)amino-3,5-dihydrophenazine] — 8.4-fold lower, 0.082 µg/mL (≈ 0.168 µM)
- Cc1cncc(Nc2cc3nc4ccccc4n(-c4ccc(C(F)(F)F)cc4)c-3c/c2=N\C2CCCCC2)c1 [TBI-722, 5-(4-Trifluoromethylphenyl)-3-cyclohexylimino-2-(5-methyl-3-pyridyl)amino-3,5-dihydrophenazine] — 22-fold lower, 0.031 µg/mL (≈ 0.0588 µM)
- Cc1cncc(Nc2cc3nc4ccccc4n(-c4ccc(C(F)(F)F)cc4)c-3c/c2=N\C2CCOCC2)c1 [TBI-723, 5-(4-Trifluoromethylphenyl)-3-(4-tetrahydropyranyl)imino-2-(5-methyl-3-pyridyl)amino-3,5-dihydrophenazine] — 17-fold lower, 0.041 µg/mL (≈ 0.0774 µM)
- COC1CCC(/N=c2\cc3n(-c4ccc(C(F)(F)F)cc4)c4ccccc4nc-3cc2Nc2cncc(C)c2)CC1 (centres unmarked) [TBI-724, 5-(4-Trifluoromethylphenyl)-3-(4-methoxycyclohexyl)imino-2-(5-meth-3-pyridyl)amino-3,5-dihydrophenazine] — 23-fold lower, 0.03 µg/mL (≈ 0.0538 µM)
- Cc1cncc(Nc2cc3nc4ccccc4n(-c4ccc(C(F)(F)F)cc4)c-3c/c2=N\C2CC2)c1 [TBI-725, 5-(4-Trifluoromethylphenyl)-3-cyclopropylimino-2-(5-methyl-3-pyridyl)amino-3,5-dihydrophenazine] — 22-fold lower, 0.031 µg/mL (≈ 0.0638 µM)
- Cc1cncc(Nc2cc3nc4ccccc4n(-c4ccc(C(F)(F)F)cc4)c-3c/c2=N\C2CCC2)c1 [TBI-726, 5-(4-Trifluoromethylphenyl)-3-cyclobutylimino-2-(5-methyl-3-pyridyl)amino-3,5-dihydrophenazine] — 12-fold lower, 0.058 µg/mL (≈ 0.116 µM)
